#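 Compound exposure: 48 hours, 5 concentrations, 96-well plates. GI50 marks 50% less growth.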 Activity calls are given as the source filed them. Rule as the data show it: active = GI50 up to about 1.1 µM and inactive = higher.
# Experiments:
# Assay in all cases: NCI tumour cell line growth inhibition, 48 h
# [1] = test system: A549
# [2] = test system: CCRF-CEM
# [3] = test system: HCC 2998
# [4] = test system: HL-60
# [5] = test system: HOP-92
# [6] = test system: IGROV-1
# [7] = test system: KM12
# [8] = test system: LOX IMVI
# [9] = test system: MCF7
# [10] = test system: Malme-3M
# [11] = test system: NCI-H23
# [12] = test system: NCI-H460
# [13] = test system: OVCAR-3
# [14] = test system: OVCAR-5
# [15] = test system: OVCAR-8
# [16] = test system: PC-3
# [17] = test system: SF-539
# [18] = test system: SK-OV-3
# [19] = test system: TK-10
# [20] = test system: U-251
SMILES,GI50 [1],GI50 [2],GI50 [3],GI50 [4],GI50 [5],GI50 [6],GI50 [7],GI50 [8],GI50 [9],GI50 [10],GI50 [11],GI50 [12],GI50 [13],GI50 [14],GI50 [15],GI50 [16],GI50 [17],GI50 [18],GI50 [19],GI50 [20]
COc1c(C(=O)/C(=N/Nc2cccc(Cl)c2)C(C)=O)c(O)c(OC)c2occc12,> 100 µM (inactive),88.1 µM (inactive),31.5 µM (inactive),> 100 µM (inactive),67.1 µM (inactive),> 100 µM (inactive),> 100 µM (inactive),56.4 µM (inactive),> 100 µM (inactive),60.1 µM (inactive),> 100 µM (inactive),65.8 µM (inactive),> 100 µM (inactive),> 100 µM (inactive),60.4 µM (inactive),53.5 µM (inactive),> 100 µM (inactive),> 100 µM (inactive),> 100 µM (inactive),> 100 µM (inactive)
C=C1CC(C)(COc2ccc3ccc(=O)oc3c2)OC1=O (stereo not given),13.5 µM (inactive),0.402 µM (active),2.18 µM (inactive),0.256 µM (active),1.12 µM (inactive),2.93 µM (inactive),4.07 µM (inactive),1.35 µM (inactive),1.48 µM (inactive),1.01 µM (active),2.29 µM (inactive),6.62 µM (inactive),3.72 µM (inactive),6.73 µM (inactive),4.72 µM (inactive),3.48 µM (inactive),2.65 µM (inactive),8.15 µM (inactive),1.58 µM (inactive),13 µM (inactive)
O=S(=O)(Cc1nc2ccccc2s1)c1nc2ccccc2s1,29.3 µM (inactive),5.5 µM (inactive),16.4 µM (inactive),8.11 µM (inactive),12.9 µM (inactive),18.7 µM (inactive),18.2 µM (inactive),10 µM (inactive),18.7 µM (inactive),11.3 µM (inactive),15.6 µM (inactive),38 µM (inactive),14.4 µM (inactive),20 µM (inactive),19.4 µM (inactive),17 µM (inactive),21.2 µM (inactive),37 µM (inactive),20 µM (inactive),18.5 µM (inactive)

# From ChEMBL document CHEMBL1201862, “PubChem BioAssay data set” (2004)
